Assay results published in ChEMBL document CHEMBL1649447, “Colorimetric high-throughput screen for detection of heme crystallization inhibitors” (Antimicrob Agents Chemother, 2009).
pIC50: −log10 of the molar value.

Tests used:
Heme [1] = assay: Inhibition of heme crystallization by hemichrome inhibition of beta-hematin assay; assay type: functional
Heme [2] = assay: Inhibition of heme crystallization by cell-free heme crystallization screen assay
Plasmodium falciparum = assay: Antimicrobial activity against Plasmodium falciparum 3D7 by DAPI growth inhibition assay; assay type: functional, organism-based

Row | IC50 (Heme [1]) | pIC50 (Heme [2]) | SMILES | pIC50 (Plasmodium falciparum)
1 | 2.9 equiv | 3.32 | OC(c1cc(C(F)(F)F)nc2c(C(F)(F)F)cccc12)C1CCCCN1 (configuration not stated) [MEFLOQUINE] | 
2 | 1.45 equiv | 4.17 | CCN(CC)Cc1cc(Nc2ccnc3cc(Cl)ccc23)ccc1O.Cl | 8.17
3 | 1.91 equiv | 3.43 | CCN(CC)CCCC(C)Nc1ccnc2cc(Cl)ccc12 (configuration not stated) [CHLOROQUINE] | 
